Measurements from patent US5962502A, “Polyamidic acid derivatives with antigastrin activity, a method for their preparation, and their pharmaceutical use” (priority 1993, dated 1999).
pIC50: −log10 of the molar value.

Assays:
central CCK-B receptor = target: T1, central CCK-B receptor (Cavia porcellus, UniProt H0VZC5); assay: Inhibition of the binding of [3-H][N-methyl-N-leucine]CCK-8 to guinea-pig cortical membranes; details: for pIC50: guinea-pig cortical membranes, 150 minutes at 25° C.
T1 construct: Cerebral cortices of male white guinea-pigs were thus used; from tissue; host or cells: cerebral cortex membranes of male white guinea-pigs
T1 sequence (H0VZC5 1-426): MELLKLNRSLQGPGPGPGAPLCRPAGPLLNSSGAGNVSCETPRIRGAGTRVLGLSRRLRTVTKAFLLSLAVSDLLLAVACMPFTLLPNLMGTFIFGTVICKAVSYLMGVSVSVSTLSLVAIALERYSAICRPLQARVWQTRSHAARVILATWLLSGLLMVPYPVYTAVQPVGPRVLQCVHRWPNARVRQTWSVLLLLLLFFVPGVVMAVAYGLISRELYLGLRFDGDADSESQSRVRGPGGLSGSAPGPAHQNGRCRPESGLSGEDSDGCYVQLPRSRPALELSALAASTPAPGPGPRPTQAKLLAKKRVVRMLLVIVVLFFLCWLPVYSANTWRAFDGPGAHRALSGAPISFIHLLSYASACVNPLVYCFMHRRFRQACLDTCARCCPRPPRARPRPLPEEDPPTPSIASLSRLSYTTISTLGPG
Description: The ability of the compounds of the invention to interact with the central CCK-B receptor was evaluated with the use of non-sulphated [3-H] […] 225 (3) (1990), 1278-1286].
Cerebral cortices of male white guinea-pigs were thus used, according to the method mentioned above, so as to obtain a membrane content corresponding to about 300 mcg of proteins/ml. The membranes were incubated together with the radioactive tracer and the compounds under test for 150 minutes at 25° C. After the supernatant had been discarded, the radioactivity associated with the pellet was determined with a liquid scintillator. The specific binding was determined as the difference between the binding in the absence and in the presence of 5.10^-6 M CCK-8.

mouse = assay: Black and White Box test in the mouse (anxiolytic activity); assay type: in vivo; details: for LIGHT TIME TOTAL TIME / LIGHT-DARK MOVEMENTS / MOV. DARK % TOTAL MOV. / TOTAL MOVEMENTS: 5 minutes; for anxiolytic activity, result in words: Black and White Box test, IP
Description: It has recently been postulated that the central CCK-B receptor has an important role in anxiety. This is in accordance with studies also carried out in man, which have shown that the central CCK-B mechanisms have an important function in the mediation of panic attacks [Bradwejn, H. et al; J. Psychopharmacology 6 (1992), 345]. […] This experimental model, which was carried out according to Costall et al [Pharm. Biochem. Behav. 32 (1989), 777-785], used a box with dimensions of 45×21×21(h) cm divided into 2 compartments which communicated with one another through a 13×5 cm hole. The smaller compartment (1/3 of the total area) had black walls, whereas the larger had transparent walls and was illuminated by a lamp which was placed 20 cm above the box and supplied light at 20W. Under the floor there was an activity meter which recorded the movements performed by the animal in the individual compartments. The experiment was started by placing the animal in the centre of the illuminated box; as well as movements, the time which the animal spent in the dark and in the light areas and the number of movements between the 2 compartments were then recorded for 5 minutes. A control animal generally preferred to stay in the dark compartment where it felt better protected from an unusual environmental situation which put it in a state of anxiety. In this experimental model, a compound having anxiolytic activity decreased the % of movements into the dark in comparison with the total movements, increased the movements between the two light-dark compartments, and increased the % of time spent in the light in comparison with the total time.
The results obtained are shown in Table 7, where the activities obtained with compounds 9, 21 and 51 are given, tested in comparison with diazepam.

O=C(O)CNC(=O)CC[C@@H](NC(=O)c1cc(Cl)cc(Cl)c1)C(=O)N1CCC2(CCCC2)CC1 [Compound 1]
pIC50 (central CCK-B receptor): 5.97

O=C(O)CCNC(=O)CC[C@@H](NC(=O)c1cc(Cl)cc(Cl)c1)C(=O)N1CCC2(CCCC2)CC1 [Compound 3]
pIC50 (central CCK-B receptor): 6.14

O=C(O)CCCNC(=O)CC[C@@H](NC(=O)c1cc(Cl)cc(Cl)c1)C(=O)N1CCC2(CCCC2)CC1 [Compound 4]
pIC50 (central CCK-B receptor): 5.90

CC(NC(=O)CC[C@@H](NC(=O)c1cc(Cl)cc(Cl)c1)C(=O)N1CCC2(CCCC2)CC1)C(=O)O (stereo partly drawn) [Compound 5]
pIC50 (central CCK-B receptor): 5.88

CSCCC(NC(=O)CC[C@@H](NC(=O)c1cc(Cl)cc(Cl)c1)C(=O)N1CCC2(CCCC2)CC1)C(=O)O (stereo partly drawn) [Compound 7]
pIC50 (central CCK-B receptor): 6.29

O=C(CC[C@@H](NC(=O)c1cc(Cl)cc(Cl)c1)C(=O)N1CCC2(CCCC2)CC1)N[C@@H](C(=O)O)c1ccccc1 [Compound 13]
pIC50 (central CCK-B receptor): 6.38

O=C(CC[C@@H](NC(=O)c1cc(Cl)cc(Cl)c1)C(=O)N1CCC2(CCCC2)CC1)NC(Cc1ccc(Cl)cc1)C(=O)O (stereo partly drawn) [Compound 17]
pIC50 (central CCK-B receptor): 6.17

O=C(CC[C@@H](NC(=O)c1cc(Cl)cc(Cl)c1)C(=O)N1CCC2(CCCC2)CC1)N[C@H](Cc1cccnc1)C(=O)O [Compound 26]
pIC50 (central CCK-B receptor): 6.60

O=C(CC[C@@H](NC(=O)c1cccc(Cl)c1)C(=O)NCCC12CC3CC(CC(C3)C1)C2)N[C@H](Cc1c[nH]c2ccccc12)C(=O)O [Compound 31]
pIC50 (central CCK-B receptor): 4.86

Cc1cccc(C(=O)N[C@H](CCC(=O)N[C@H](Cc2c[nH]c3ccccc23)C(=O)O)C(=O)N2CCC3(CCCC3)CC2)c1 [Compound 32]
pIC50 (central CCK-B receptor): 5.45

CC(C)(C)CCNC(=O)[C@@H](CCC(=O)NC(Cc1ccccc1)C(=O)O)NC(=O)c1cccc(Cl)c1 (stereo partly drawn) [Compound 33]
pIC50 (central CCK-B receptor): < 4.52

O=C(O)CC[C@@H](NC(=O)CC[C@@H](NC(=O)c1cc(Cl)cc(Cl)c1)C(=O)N1CCC2(CCCC2)CC1)C(=O)N1CCC2(CCCC2)CC1 [Compound 36]
pIC50 (central CCK-B receptor): 5.77

CN(C(=O)[C@@H](CCC(=O)O)NC(=O)CC[C@@H](NC(=O)c1cc(Cl)cc(Cl)c1)C(=O)N1CCC2(CCCC2)CC1)c1ccccc1 [Compound 37]
pIC50 (central CCK-B receptor): 6.15

O=C(O)CC[C@@H](NC(=O)CC[C@@H](NC(=O)c1cc(Cl)cc(Cl)c1)C(=O)N1CCC2(CCCC2)CC1)C(=O)Nc1ccc2ccccc2c1 [Compound 39]
pIC50 (central CCK-B receptor): 6.15

O=C(O)CC[C@@H](NC(=O)CC[C@@H](NC(=O)c1cc(Cl)cc(Cl)c1)C(=O)N1CCC2(CCCC2)CC1)C(=O)NCCC12CC3CC(CC(C3)C1)C2 [Compound 40]
pIC50 (central CCK-B receptor): < 4.52

O=C(O)CC[C@@H](NC(=O)CC[C@@H](NC(=O)c1cc(Cl)cc(Cl)c1)C(=O)N1CCC2(CCCC2)CC1)C(=O)NCCc1ccccc1 [Compound 41]
pIC50 (central CCK-B receptor): 6.10

CCCCCN(CCCCC)C(=O)[C@@H](CCC(=O)N[C@H](Cc1c[nH]c2ccccc12)C(=O)O)NC(=O)c1ccc2ccccc2c1 [Compound 42]
pIC50 (central CCK-B receptor): 5.73

O=C(C[C@@H](NC(=O)c1cc(Cl)cc(Cl)c1)C(=O)N1CCC2(CCCC2)CC1)N[C@H](Cc1ccccc1)C(=O)O [Compound 44]
pIC50 (central CCK-B receptor): 6.46

CC(Cc1ccccc1)(NC(=O)CC[C@@H](NC(=O)c1cc(Cl)cc(Cl)c1)C(=O)N1CCC2(CCCC2)CC1)C(=O)O (stereo partly drawn) [Compound 45]
pIC50 (central CCK-B receptor): 6.24

CN(C(=O)c1cc(Cl)cc(Cl)c1)[C@H](CCC(=O)N[C@H](Cc1c[nH]c2ccccc12)C(=O)O)C(=O)N1CCC2(CCCC2)CC1 [Compound 46]
pIC50 (central CCK-B receptor): 6.92

CN(C(=O)CC[C@@H](NC(=O)c1cc(Cl)cc(Cl)c1)C(=O)N1CCC2(CCCC2)CC1)c1ccc(C(=O)O)cc1 [Compound 48]
pIC50 (central CCK-B receptor): 6.36

O=C(CC[C@@H](NC(=O)c1cc(Cl)cc(Cl)c1)C(=O)N1CCC2(CCCC2)CC1)Nc1cccc(C(=O)O)c1 [Compound 49]
pIC50 (central CCK-B receptor): 5.86

O=C(CC[C@@H](NC(=O)c1ccccc1)C(=O)N1CCC2(CCCC2)CC1)Nc1ccc(C(=O)O)cc1 [Compound 54]
pIC50 (central CCK-B receptor): 5.04

O=C(C[C@@H](NC(=O)c1cc(Cl)cc(Cl)c1)C(=O)N1CCC2(CCCC2)CC1)Nc1ccccc1C(=O)O [Compound 55]
pIC50 (central CCK-B receptor): < 4.52

O=C(CC[C@@H](NC(=O)c1cc(Cl)cc(Cl)c1)C(=O)N1CCC2(CCCC2)CC1)NCc1ccc(C(=O)O)cc1 [Compound 56]
pIC50 (central CCK-B receptor): 4.71

O=C(O)Cc1ccc(NC(=O)CC[C@@H](NC(=O)c2cc(Cl)cc(Cl)c2)C(=O)N2CCC3(CCCC3)CC2)cc1 [Compound 57]
pIC50 (central CCK-B receptor): 5.11

O=C(CC[C@H](NC(=O)c1cc(Cl)cc(Cl)c1)C(=O)N1CCC2(CCCC2)CC1)N[C@H](Cc1ccccc1)C(=O)O [Compound S-9, reference compound]
times less active than its R diastereoisomer, compound 9 (centre *) (central CCK-B receptor; binding, guinea-pig cortex): about 250 times | pIC50 (central CCK-B receptor): 4.41 | CCK-B-antagonistic activity in vitro, result in words (central CCK-B receptor; see Table 3): weak CCK-B-antagonistic activity | EFF. % VS CONTROL (LIGHT TIME TOTAL TIME) (mouse; 1.0 mg/kg IP): 3% | EFF. % VS CONTROL (LIGHT-DARK MOVEMENTS) (mouse; 1.0 mg/kg IP): 6% | EFF. % VS CONTROL (MOV. DARK % TOTAL MOV.) (mouse; 1.0 mg/kg IP): -5% | LIGHT TIME TOTAL TIME (mouse; 1.0 mg/kg IP): 28.5% | LIGHT-DARK MOVEMENTS (mouse; 1.0 mg/kg IP): 18.2 | MOV. DARK % TOTAL MOV. (mouse; 1.0 mg/kg IP): 57% | TOTAL MOVEMENTS (mouse; 1.0 mg/kg IP): 528 | EFF. % VS CONTROL (LIGHT TIME TOTAL TIME) (mouse; 10.0 mg/kg IP): 0% | EFF. % VS CONTROL (LIGHT-DARK MOVEMENTS) (mouse; 10.0 mg/kg IP): 0% | EFF. % VS CONTROL (MOV. DARK % TOTAL MOV.) (mouse; 10.0 mg/kg IP): +3% | LIGHT TIME TOTAL TIME (mouse; 10.0 mg/kg IP): 24.9% | LIGHT-DARK MOVEMENTS (mouse; 10.0 mg/kg IP): 14.4 | MOV. DARK % TOTAL MOV. (mouse; 10.0 mg/kg IP): 62% | TOTAL MOVEMENTS (mouse; 10.0 mg/kg IP): 495 | anxiolytic activity, result in words (mouse): completely inactive

CN1C(=O)CN=C(c2ccccc2)c2cc(Cl)ccc21 [DIAZEPAM, diazepam, reference compound]
EFF. % VS CONTROL (LIGHT TIME TOTAL TIME) (mouse; 1.0 mg/kg IP): 19% | EFF. % VS CONTROL (LIGHT-DARK MOVEMENTS) (mouse; 1.0 mg/kg IP): 37% | EFF. % VS CONTROL (MOV. DARK % TOTAL MOV.) (mouse; 1.0 mg/kg IP): -5% | LIGHT TIME TOTAL TIME (mouse; 1.0 mg/kg IP): 29.3% | LIGHT-DARK MOVEMENTS (mouse; 1.0 mg/kg IP): 19.9 | MOV. DARK % TOTAL MOV. (mouse; 1.0 mg/kg IP): 53% | TOTAL MOVEMENTS (mouse; 1.0 mg/kg IP): 508 | EFF. % VS CONTROL (LIGHT TIME TOTAL TIME) (mouse; 3.0 mg/kg IP): 37% | EFF. % VS CONTROL (LIGHT-DARK MOVEMENTS) (mouse; 3.0 mg/kg IP): 54% | EFF. % VS CONTROL (MOV. DARK % TOTAL MOV.) (mouse; 3.0 mg/kg IP): -7% | LIGHT TIME TOTAL TIME (mouse; 3.0 mg/kg IP): 33.6% | LIGHT-DARK MOVEMENTS (mouse; 3.0 mg/kg IP): 22.3 | MOV. DARK % TOTAL MOV. (mouse; 3.0 mg/kg IP): 52% | TOTAL MOVEMENTS (mouse; 3.0 mg/kg IP): 539 | effect on the total movements parameter, result in words (mouse; 1 and 3 mg/kg): significantly increased | anxiolytic activity, result in words (mouse): active for all the parameters tested
